Active and inactive are the calls of the source. The calls are words filed in the database; no cut-off is given here.
Experiments:
[1] = Tmax in male C57BL/6 mouse at 10 mg/kg, po measured up to 24 hrs by LC-MS/MS analysis; format: ADME, organism-based; conditions: in vivo
[2] = target: T1, Protein cereblon/Interleukin-1 receptor-associated kinase 4 (Homo sapiens, UniProt Q9NWZ3+Q96SW2); experiment: PROTAC activity at CRBN/IRAK4 in human THP-1 cells assessed as induction of IRAK4 degradation incubated for 24 hrs by HiBiT lytic reagent based analysis relative to control; format: cell-based
Target sequence in this assay (Q96SW2 whole entry, looked up): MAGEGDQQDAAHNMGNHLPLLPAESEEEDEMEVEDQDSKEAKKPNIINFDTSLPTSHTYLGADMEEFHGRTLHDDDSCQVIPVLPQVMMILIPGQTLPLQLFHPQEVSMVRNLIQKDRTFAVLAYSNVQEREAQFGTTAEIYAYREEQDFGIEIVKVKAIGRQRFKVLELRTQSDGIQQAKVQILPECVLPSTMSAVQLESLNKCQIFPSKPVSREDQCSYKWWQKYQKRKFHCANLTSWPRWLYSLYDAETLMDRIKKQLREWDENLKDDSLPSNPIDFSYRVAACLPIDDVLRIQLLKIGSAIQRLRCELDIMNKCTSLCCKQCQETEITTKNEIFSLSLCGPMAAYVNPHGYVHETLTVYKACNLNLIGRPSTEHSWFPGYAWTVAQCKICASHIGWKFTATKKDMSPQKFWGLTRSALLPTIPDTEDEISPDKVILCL
Target sequence in this assay (Q9NWZ3 whole entry, looked up): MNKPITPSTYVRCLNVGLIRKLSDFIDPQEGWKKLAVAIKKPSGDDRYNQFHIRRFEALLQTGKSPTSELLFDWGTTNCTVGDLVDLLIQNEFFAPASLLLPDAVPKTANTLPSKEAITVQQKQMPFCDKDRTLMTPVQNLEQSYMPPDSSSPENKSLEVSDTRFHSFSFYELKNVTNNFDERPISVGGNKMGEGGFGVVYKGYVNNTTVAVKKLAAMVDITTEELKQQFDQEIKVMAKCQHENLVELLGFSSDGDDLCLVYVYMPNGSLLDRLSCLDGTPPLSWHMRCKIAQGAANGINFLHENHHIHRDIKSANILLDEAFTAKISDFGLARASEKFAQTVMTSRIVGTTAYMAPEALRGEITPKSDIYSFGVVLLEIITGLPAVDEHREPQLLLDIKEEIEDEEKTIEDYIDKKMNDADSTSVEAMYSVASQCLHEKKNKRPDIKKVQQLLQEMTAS

[3] = Clearance in male C57BL/6 mouse at 2 mg/kg, iv measured up to 24 hrs by LC-MS/MS analysis; format: ADME, organism-based; conditions: in vivo
[4] = target: T1, Protein cereblon/Interleukin-1 receptor-associated kinase 4; experiment: PROTAC activity at CRBN/IRAK4 in human THP-1 cells assessed as induction of IRAK4 degradation incubated for 24 hrs by HiBiT lytic reagent based analysis; format: cell-based
Target sequence in this assay (Q9NWZ3 whole entry): as the sequence (Q9NWZ3 whole entry, looked up) above
Target sequence in this assay (Q96SW2 whole entry): as the sequence (Q96SW2 whole entry, looked up) above

[5] = Metabolic stability in human liver microsome assessed as half life at 1 uM measured up to 60 mins in presence of NADPH by LC-MS/MS analysis; format: ADME; conditions: liver microsomes
[6] = Cmax in male C57BL/6 mouse at 10 mg/kg, po measured up to 24 hrs by LC-MS/MS analysis; format: ADME, organism-based; conditions: in vivo
[7] = Half life in male C57BL/6 mouse at 10 mg/kg, po measured up to 24 hrs by LC-MS/MS analysis; format: ADME, organism-based; conditions: in vivo
[8] = Cmax in male C57BL/6 mouse at 2 mg/kg, iv measured up to 24 hrs by LC-MS/MS analysis; format: ADME, organism-based; conditions: in vivo
[9] = Oral bioavailability in male C57BL/6 mouse at 10 mg/kg measured up to 24 hrs by LC-MS/MS analysis; format: ADME, organism-based; conditions: in vivo
hERG (KCNH2) [10] = target: T2, hERG (KCNH2) (Homo sapiens, UniProt Q12809); experiment: Inhibition of hERG expressed in HEK293 cells at 1 uM by manual patch clamp assay relative to control; format: toxicity, cell-based; conditions: HEK293 cells expressing hERG
[11] = Metabolic stability in mouse liver microsome assessed as half life at 1 uM measured up to 60 mins in presence of NADPH by LC-MS/MS analysis; format: ADME; conditions: liver microsomes
[12] = Metabolic stability in dog liver microsome assessed as half life at 1 uM measured up to 60 mins in presence of NADPH by LC-MS/MS analysis; format: ADME, Canis lupus familiaris; conditions: liver microsomes
[13] = Half life in male C57BL/6 mouse at 2 mg/kg, iv measured up to 24 hrs by LC-MS/MS analysis; format: ADME, organism-based; conditions: in vivo
[14] = AUClast in male C57BL/6 mouse at 2 mg/kg, iv measured up to 24 hrs by LC-MS/MS analysis; format: ADME, organism-based; conditions: in vivo
[15] = Volume of distribution at steady state in male C57BL/6 mouse at 2 mg/kg, iv measured up to 24 hrs by LC-MS/MS analysis; format: ADME, organism-based; conditions: in vivo, read-out: Vdss
[16] = AUClast in male C57BL/6 mouse at 10 mg/kg, po measured up to 24 hrs by LC-MS/MS analysis; format: ADME, organism-based; conditions: in vivo
[17] = Oral bioavailability in Sprague-Dawley rat at 10 mg/kg measured up to 24 hrs by LC-MS/MS analysis; format: ADME, organism-based; conditions: in vivo
[18] = Half life in Sprague-Dawley rat at 2 mg/kg, iv measured up to 24 hrs by LC-MS/MS analysis; format: ADME, organism-based; conditions: in vivo
[19] = Tmax in Sprague-Dawley rat at 10 mg/kg, po measured up to 24 hrs by LC-MS/MS analysis; format: ADME, organism-based; conditions: in vivo
[20] = AUClast in Sprague-Dawley rat at 2 mg/kg, iv measured up to 24 hrs by LC-MS/MS analysis; format: ADME, organism-based; conditions: in vivo
[21] = AUClast in Sprague-Dawley rat at 10 mg/kg, po measured up to 24 hrs by LC-MS/MS analysis; format: ADME, organism-based; conditions: in vivo
[22] = Clearance in Sprague-Dawley rat at 2 mg/kg, iv measured up to 24 hrs by LC-MS/MS analysis; format: ADME, organism-based; conditions: in vivo
[23] = Half life in Sprague-Dawley rat at 10 mg/kg, po measured up to 24 hrs by LC-MS/MS analysis; format: ADME, organism-based; conditions: in vivo
[24] = Cmax in Sprague-Dawley rat at 10 mg/kg, po measured up to 24 hrs by LC-MS/MS analysis; format: ADME, organism-based; conditions: in vivo
[25] = Cmax in Sprague-Dawley rat at 2 mg/kg, iv measured up to 24 hrs by LC-MS/MS analysis; format: ADME, organism-based; conditions: in vivo
[26] = Volume of distribution at steady state in Sprague-Dawley rat at 2 mg/kg, iv measured up to 24 hrs by LC-MS/MS analysis; format: ADME, organism-based; conditions: in vivo, read-out: Vdss
Mus musculus = experiment: Anti-arthritic activity against collagen-induced arthritis DBA/1 mouse model assessed as reduction in pathological score at 30 mg/kg, po administered for 14 days; format: functional, organism-based; conditions: time 14.0 day
[27] = Metabolic stability in cynomolgus monkey liver microsome assessed as half life at 1 uM measured up to 60 mins in presence of NADPH by LC-MS/MS analysis; format: ADME, Macaca fascicularis; conditions: liver microsomes
[28] = Metabolic stability in rat liver microsome assessed as half life at 1 uM measured up to 60 mins in presence of NADPH by LC-MS/MS analysis; format: ADME; conditions: liver microsomes
hERG (KCNH2) [29] = target: T2, hERG (KCNH2); experiment: Inhibition of hERG expressed in HEK293 cells at 3 uM by manual patch clamp assay relative to control; format: toxicity, cell-based; conditions: HEK293 cells expressing hERG
[30] = target: Voltage-gated inwardly rectifying potassium channel KCNH2 (Homo sapiens, UniProt Q12809); experiment: Inhibition of hERG expressed in HEK293 cells by manual patch clamp assay; format: toxicity, cell-based; design: concentration or dose not given beside the values
Sequence of Voltage-gated inwardly rectifying potassium channel KCNH2 (Q12809 whole entry): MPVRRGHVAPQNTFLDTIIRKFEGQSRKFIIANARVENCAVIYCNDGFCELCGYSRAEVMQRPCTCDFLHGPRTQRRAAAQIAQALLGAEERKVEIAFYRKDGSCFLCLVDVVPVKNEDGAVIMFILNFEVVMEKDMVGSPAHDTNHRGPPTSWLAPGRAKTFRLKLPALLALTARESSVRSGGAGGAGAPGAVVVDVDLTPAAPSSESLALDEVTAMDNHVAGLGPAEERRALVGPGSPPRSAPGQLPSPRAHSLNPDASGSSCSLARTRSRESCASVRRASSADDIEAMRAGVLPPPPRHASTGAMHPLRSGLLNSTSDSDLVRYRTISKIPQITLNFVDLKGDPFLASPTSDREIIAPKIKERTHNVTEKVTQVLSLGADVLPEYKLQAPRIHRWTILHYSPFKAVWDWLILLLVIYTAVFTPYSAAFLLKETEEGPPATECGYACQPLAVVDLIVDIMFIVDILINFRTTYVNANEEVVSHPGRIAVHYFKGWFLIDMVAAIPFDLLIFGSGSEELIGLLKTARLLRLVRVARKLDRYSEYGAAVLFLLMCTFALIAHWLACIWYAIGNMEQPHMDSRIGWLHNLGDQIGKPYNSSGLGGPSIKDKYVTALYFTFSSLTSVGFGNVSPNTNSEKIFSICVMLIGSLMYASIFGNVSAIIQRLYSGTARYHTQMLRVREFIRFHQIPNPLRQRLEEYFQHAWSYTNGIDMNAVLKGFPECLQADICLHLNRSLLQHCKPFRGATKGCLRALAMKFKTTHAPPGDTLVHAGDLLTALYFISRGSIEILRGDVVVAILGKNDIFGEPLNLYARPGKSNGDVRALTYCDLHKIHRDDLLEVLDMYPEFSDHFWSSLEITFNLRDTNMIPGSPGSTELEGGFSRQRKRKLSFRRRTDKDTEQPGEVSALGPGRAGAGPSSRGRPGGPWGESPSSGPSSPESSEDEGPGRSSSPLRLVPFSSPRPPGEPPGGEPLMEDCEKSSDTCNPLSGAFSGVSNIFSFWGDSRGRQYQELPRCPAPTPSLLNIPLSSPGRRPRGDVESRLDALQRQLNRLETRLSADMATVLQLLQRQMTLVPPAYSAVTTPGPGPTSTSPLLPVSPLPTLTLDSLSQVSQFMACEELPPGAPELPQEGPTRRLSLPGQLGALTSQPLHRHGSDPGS

T2 sequence (Q12809 whole entry): as above

| Tmax [1] [h] | Emax [2] [%] | clearance [3] [mL/min/kg] | DC50 [4] [nM] | half-life at 1 µM [5] [h] | Cmax [6] [ng/mL] | half-life [7] [h] | Cmax [8] [ng/mL] | bioavailability [9] [%] | half-life at 1 µM [11] [h] | half-life at 1 µM [12] [h] | half-life [13] [h] | AUC(0-t) at 24 h [14] [ng·h/mL] | Vd [15] [L/kg] | AUC(0-t) at 24 h [16] [ng·h/mL] | F [17] [%] | half-life [18] [h] | Tmax [19] [h] | AUClast [20] [ng·h/mL] | Structure (SMILES) | inhibition at 1 µM (hERG (KCNH2) [10]) [%] | also measured |
| --- | --- | --- | --- | --- | --- | --- | --- | --- | --- | --- | --- | --- | --- | --- | --- | --- | --- | --- | --- | --- | --- |
| 2 | 90 | 9.75 | 4.06 | > 3.07 | 1190 | 4.4 | 1230 | 54 | > 3.07 | > 3.07 | 9.75 | 3190 | 1.66 | 7390 | – | – | – | – | Cn1c(=O)n(C2CCC(=O)NC2=O)c2cccc(C#CCO[C@H]3CC[C@H](CN4CCC5(CC4)Cc4cc(NC(=O)c6cnc7cccnn67)c(N6CCC(CO)CC6)cc4O5)CC3)c21 (some centres not stated) | 15 | – |
| 4 | 87 | 2.83 | 2.24 | > 3.07 | 2280 | 4.27 | 1380 | 47 | > 3.07 | > 3.07 | 4.07 | 11700 | 0.96 | 27000 | 21 | 3.14 | 6 | 424 | Cn1c(=O)n(C2CCC(=O)NC2=O)c2cccc(C#CCO[C@H]3CC[C@H](CN4CCC5(CC4)Cc4cc(NC(=O)c6cnn7cc(F)cnc67)c(N6CCC(CO)CC6)cc4O5)CC3)c21 (some centres not stated) | 36 | AUClast [21]: 8344 ng·h/mL; clearance [22]: 12.4 mL/min/kg; half-life [23]: 2.94 h; Cmax [24]: 628 ng/mL; Cmax [25]: 243 ng/mL; Vd [26]: 3.12 L/kg |
| – | – | – | – | – | – | – | – | – | – | – | – | – | – | – | – | – | – | – | C[C@@H]1CCN(C(=O)CC#N)C[C@@H]1N(C)c1ncnc2[nH]ccc12 | – | Activity (Mus musculus): Active |
| 4 | 87 | 2.44 | 1.37 | > 3.07 | 3490 | 3.82 | 2780 | 59 | > 3.07 | > 3.07 | 2.76 | 14100 | 0.6 | 42100 | 15 | 2.42 | 8 | 1436 | Cn1c(=O)n(C2CCC(=O)NC2=O)c2cccc(C#CCO[C@H]3CC[C@H](CN4CCC5(CC4)Cc4cc(NC(=O)c6cnn7cccnc67)c(N6CCC(O)CC6)cc4O5)CC3)c21 (some centres not stated) | – | half-life at 1 µM [27]: 1.07 h; half-life at 1 µM [28]: > 3.07 h; inhibition at 3 µM (hERG (KCNH2) [29]): 35%; AUClast [21]: 3395 ng·h/mL; clearance [22]: 21.4 mL/min/kg; half-life [23]: 3.16 h; Cmax [24]: 352 ng/mL; Cmax [25]: 696 ng/mL; Vd [26]: 3.69 L/kg |
| – | 92 | – | 1.09 | 0.733 | – | – | – | – | 1.1 | 1.55 | – | – | – | – | – | – | – | – | Cn1c(=O)n(C2CCC(=O)NC2=O)c2cccc(CN3CCC(CCN4CCC5(CC4)Cc4cc(NC(=O)c6cnn7cccnc67)c(N6CCC(CO)CC6)cc4O5)CC3)c21 (configuration not stated) | – | half-life at 1 µM [27]: 0.217 h; half-life at 1 µM [28]: 0.817 h; inhibition (INH) [30]: 28% |

| Structure (SMILES) | Tmax [1] [h] | Emax [2] [%] | clearance [3] [mL/min/kg] | DC50 [4] [nM] | half-life at 1 µM [5] [h] | Cmax [6] [ng/mL] | half-life [7] [h] | Cmax [8] [ng/mL] | bioavailability [9] [%] | half-life at 1 µM [11] [h] | half-life at 1 µM [12] [h] | half-life [13] [h] | AUC(0-t) at 24 h [14] [ng·h/mL] | Vd [15] [L/kg] | AUC(0-t) at 24 h [16] [ng·h/mL] | F [17] [%] | half-life [18] [h] | Tmax [19] [h] | AUClast [20] [ng·h/mL] | inhibition at 1 µM (hERG (KCNH2) [10]) [%] | also measured |
| --- | --- | --- | --- | --- | --- | --- | --- | --- | --- | --- | --- | --- | --- | --- | --- | --- | --- | --- | --- | --- | --- |
| Cn1c(=O)n(C2CCC(=O)NC2=O)c2cccc(C#CCO[C@H]3CC[C@H](CN4CCC5(CC4)Cc4cc(NC(=O)c6cnn7cccnc67)c(N6CCC(CO)CC6)cc4O5)CC3)c21 (some centres not stated) | 2 | 90 | 4.67 | 2.65 | > 3.07 | 1540 | 3.7 | 2000 | 42 | > 3.07 | > 3.07 | 2.69 | 7160 | 0.94 | 14800 | 11 | 3.94 | 6 | 2193 | 28 | half-life at 1 µM [27]: 2.33 h; half-life at 1 µM [28]: > 3.07 h; AUClast [21]: 3524 ng·h/mL; clearance [22]: 15.1 mL/min/kg; half-life [23]: 3.58 h; Cmax [24]: 261 ng/mL; Cmax [25]: 1030 ng/mL; Vd [26]: 3.26 L/kg |
